Data published in publication PMC6112376, “Comprehensive Analyses and Prioritization of Tox21 10K Chemicals Affecting Mitochondrial Function by in-Depth Mechanistic Studies” (Environmental Health Perspectives, 2018).
Read-outs that look alike come from different tables or passages of the source.

Legend:
HepG2 cells [1] = experiment: cells; conditions: Homo sapiens; for Emax: HepG2, read-out: MMP assays efficacy (%) HepG2
hNSC = experiment: MMP assay in human neural stem cells (hNSC); assay type: cell-based; conditions: Homo sapiens, Neural stem cell; 1 h treatment; fresh re-sourced stocks; mean±SD of three experiments; read-out: hNSC IC50 (MMP)
rat primary hepatocytes = experiment: MMP assay in rat primary hepatocytes; conditions: for Rat hepatocytes (efficacy) (MMP): % of positive control, mean±SD of three experiments; for IC50: Rattus norvegicus, Hepatocyte; for MMP assays efficacy (%) Rat Hepatocytes: mean ± SD of three experiments
[2] = test system: Caenorhabditis elegans strain PE255; experiment: In vivo C. elegans ATP status assay; conditions: for minimal effective concentration: Caenorhabditis elegans, read-out: LEC LUM: lowest effect concentration for luminescence, a measure of nematode ATP content
[3] = test system: Nrf2/ARE (ARE-bla HepG2 cells); experiment: ARE β-lactamase reporter gene assay; assay type: cell-based, human; conditions: Homo sapiens, HepG2; 16 h incubation; mean±SD of three experiments; read-out: ARE (HepG2) EC50
HepG2 cells [4] = experiment: ROS-Glo hydrogen peroxide (ROS) assay; assay type: cell-based, human; conditions: Homo sapiens, HepG2; 2 h treatment; mean±SD of three experiments; read-out: ROS (HepG2) EC50
HepG2 cells [5] = experiment: Intracellular ATP content (cell viability) assay; assay type: cell-based, human; conditions: 40 h treatment, mean±SD of three experiments; for IC50: Homo sapiens, HepG2
[6] = test system: p53 (p53-bla HCT-116 cells); experiment: p53 β-lactamase reporter gene assay; assay type: cell-based, human; conditions: 16 h incubation; mean±SD of three experiments
[7] = test system: Caenorhabditis elegans (Bristol N2); experiment: C. elegans larval development and growth assay; conditions: for minimal effective concentration: Caenorhabditis elegans, read-out: LEC EXT: lowest effect concentration for extinction, a measure of nematode size
[8] = test system: isolated rat liver mitochondria; experiment: Oxygen consumption, Clark-type oxygen electrode; assay type: biochemical; conditions: for I-ADP, % of control (O2 consumption rate) / I-sub, % of control (O2 consumption rate) / II-ADP, % of control (O2 consumption rate) / II-sub, % of control (O2 consumption rate): 100 µM, isolated rat liver mitochondria; for I-ADP, % of control (O2 consumption rate): glutamate/malate driven state 3 respiration; for I-sub, % of control (O2 consumption rate): glutamate/malate driven state 4 respiration; for II-ADP, % of control (O2 consumption rate): succinate-driven state 3 respiration; for II-sub, % of control (O2 consumption rate): succinate-driven state 4 respiration; for Potential Mechanism: mitochondrial respiration in isolated rat liver mitochondria, Clark type oxygen electrode, over tested concentrations
[9] = test system: HeLa cells expressing YFP-Parkin; experiment: Parkin translocation assay; assay type: cell-based, human; conditions: HeLa cells stably expressing YFP-Parkin; treated for 2 h
HepG2 cells [10] = conditions: cited from earlier work; for IC50: read-out: MMP assays IC50 (µM) qHTS-HepG2
[11] = HepG2, 1 h, read-out: HepG2 IC50 Galactose (MMP)
[12] = HepG2, 1 h, read-out: HepG2 IC50 Glucose (MMP)
[13] = HepG2, read-out: MMP assays IC50 (µM) HepG2
[14] = 1 h, read-out: Rat hepatocytes IC50 (MMP)
[15] = read-out: MMP assays IC50 (µM) Rat Hepatocytes

Structure (SMILES): NNc1nc(-c2ccc(N)cc2)cs1 [2-Hydrazino-4-(4-aminophenyl) thiazole]
- IC50 (HepG2 cells [1]; [11]): 18.5 ± 2.55 µM
- IC50 (HepG2 cells [1]; [12]): 15.3 ± 1.76 µM
- IC50 (HepG2 cells [1]; [13]): 0.4 µM
- Emax (HepG2 cells [1]): 85%
- IC50 (hNSC): 1.76 ± 0.57 µM
- Rat hepatocytes (efficacy) (MMP) (rat primary hepatocytes): −50.5±1.77%
- IC50 (rat primary hepatocytes; [14]): 19.8 ± 11.5 µM
- IC50 (rat primary hepatocytes; [15]): 3.55 ± 3.86 µM
- MMP assays efficacy (%) Rat Hepatocytes (rat primary hepatocytes): -67±14%
- LUM: mean difference in luminescence (ATP content) relative to plate controls ([2]; 0.5 µM): 0.02471
- LUM: mean difference in luminescence (ATP content) relative to plate controls ([2]; 1 µM): 0.06159
- LUM: mean difference in luminescence (ATP content) relative to plate controls ([2]; 5 µM): 0.05233
- LUM: mean difference in luminescence (ATP content) relative to plate controls ([2]; 10 µM): 0.08412
- LUM: mean difference in luminescence (ATP content) relative to plate controls ([2]; 25 µM): 0.4284
- LUM: mean difference in luminescence (ATP content) relative to plate controls ([2]; 50 µM): 0.3261
- LUM: mean difference in luminescence (ATP content) relative to plate controls ([2]; 75 µM): 0.5564
- LUM: mean difference in luminescence (ATP content) relative to plate controls ([2]; 100 µM): 0.6002
- minimal effective concentration [2]: 25 µM
- EC50 [3]: 10.5 ± 8.1 µM
- EC50 (HepG2 cells [4]): 25.4 ± 3.24 µM
- IC50 (HepG2 cells [5]; 5 mM glucose, read-out: ATP (HepG2, glucose) IC50): 59.5 ± 23.5 µM
- IC50 (HepG2 cells [5]; 10 mM galactose, read-out: ATP (HepG2, galactose) IC50): 60.8 ± 6.99 µM
- p53 (HCT-116) EC50 [6]: Inactive
- EXT: mean difference in nematode size relative to plate controls ([7]; 0.5 µM): 0.05389
- EXT: mean difference in nematode size relative to plate controls ([7]; 1 µM): 0.002943
- EXT: mean difference in nematode size relative to plate controls ([7]; 5 µM): -0.00605
- EXT: mean difference in nematode size relative to plate controls ([7]; 10 µM): 0.1893
- EXT: mean difference in nematode size relative to plate controls ([7]; 25 µM): 0.2089
- EXT: mean difference in nematode size relative to plate controls ([7]; 50 µM): 0.1347
- EXT: mean difference in nematode size relative to plate controls ([7]; 75 µM): 0.3557
- EXT: mean difference in nematode size relative to plate controls ([7]; 100 µM): 0.3701
- minimal effective concentration [7]: 25 µM
- I-ADP, % of control (O2 consumption rate) [8]: 105 (55.7) % of control
- I-sub, % of control (O2 consumption rate) [8]: 109 (14.6) % of control
- II-ADP, % of control (O2 consumption rate) [8]: 101 (68.1) % of control
- II-sub, % of control (O2 consumption rate) [8]: 98 (21.3) % of control
- Potential Mechanism [8]: Inactive
- Parkin recruitment [9]: Inactive
- MMP assays efficacy (%) qHTS-HepG2 (HepG2 cells [10]): -83±12%
- IC50 (HepG2 cells [10]): 0.06 ± 0.02 µM

Structure (SMILES): Nc1ccc2c(c1)C(=O)c1ccccc1C2=O [2-Aminoanthraquinone]
- IC50 (HepG2 cells [1]; [11]): 8.98 ± 1.62 µM
- IC50 (HepG2 cells [1]; [12]): 6.58 ± 0.9 µM
- IC50 (HepG2 cells [1]; [13]): 1.26 µM
- Emax (HepG2 cells [1]): 85%
- IC50 (hNSC): 1.8 ± 0.83 µM
- Rat hepatocytes (efficacy) (MMP) (rat primary hepatocytes): −58.3±7.52%
- IC50 (rat primary hepatocytes; [14]): 9.63 ± 3.17 µM
- IC50 (rat primary hepatocytes; [15]): 3.57 ± 2.61 µM
- MMP assays efficacy (%) Rat Hepatocytes (rat primary hepatocytes): -91±30%
- LUM: mean difference in luminescence (ATP content) relative to plate controls ([2]; 0.5 µM): 0.5241
- LUM: mean difference in luminescence (ATP content) relative to plate controls ([2]; 1 µM): 1.069
- LUM: mean difference in luminescence (ATP content) relative to plate controls ([2]; 5 µM): 1.958
- LUM: mean difference in luminescence (ATP content) relative to plate controls ([2]; 10 µM): 1.846
- LUM: mean difference in luminescence (ATP content) relative to plate controls ([2]; 25 µM): 1.929
- LUM: mean difference in luminescence (ATP content) relative to plate controls ([2]; 50 µM): 1.555
- LUM: mean difference in luminescence (ATP content) relative to plate controls ([2]; 75 µM): 1.569
- LUM: mean difference in luminescence (ATP content) relative to plate controls ([2]; 100 µM): 1.98
- LEC (lowest effect concentration), ATP assay ([2]; 24 h exposure): ≤ 10 µM
- minimal effective concentration [2]: 0.5 µM
- EC50 [3]: 3.93 ± 0.89 µM
- EC50 (HepG2 cells [4]): 4.72 ± 0.8 µM
- ATP (HepG2, glucose) IC50 (HepG2 cells [5]; 5 mM glucose): Inactive
- ATP (HepG2, galactose) IC50 (HepG2 cells [5]; 10 mM galactose): Inactive
- p53 (HCT-116) EC50 [6]: Inactive
- EXT: mean difference in nematode size relative to plate controls ([7]; 0.5 µM): 0.000738
- EXT: mean difference in nematode size relative to plate controls ([7]; 1 µM): 0.7865
- EXT: mean difference in nematode size relative to plate controls ([7]; 5 µM): 0.06113
- EXT: mean difference in nematode size relative to plate controls ([7]; 10 µM): 0.09116
- EXT: mean difference in nematode size relative to plate controls ([7]; 25 µM): 0.03934
- EXT: mean difference in nematode size relative to plate controls ([7]; 50 µM): 0.4385
- EXT: mean difference in nematode size relative to plate controls ([7]; 75 µM): 0.2071
- EXT: mean difference in nematode size relative to plate controls ([7]; 100 µM): 0.2541
- minimal effective concentration [7]: 100 µM
- I-ADP, % of control (O2 consumption rate) [8]: 101 (53.8) % of control
- I-sub, % of control (O2 consumption rate) [8]: 98 (13.2) % of control
- II-ADP, % of control (O2 consumption rate) [8]: 124 (83.8) % of control
- II-sub, % of control (O2 consumption rate) [8]: 107 (23.2) % of control
- Potential Mechanism [8]: Inactive
- Parkin recruitment [9]: Inactive
- MMP assays efficacy (%) qHTS-HepG2 (HepG2 cells [10]): -85±11%
- IC50 (HepG2 cells [10]): 0.51 ± 0.29 µM
